{"source": "patent EP3797781A1", "about": "“USE OF EC-7072 AND SYNERGIC COMPOSITIONS THEREOF IN TREATMENT OF CHRONIC LYMPHOCYTIC LEUKEMIA” (priority 2019, dated 2021)", "key": {"BCL2": {"test_system": "BCL2", "experiment": "BCL2 levels by intracellular flow cytometry in isolated CLL cells", "format": "cell-based, human", "conditions": "200 nM, 12 and 18 hours; isolated CLL cells (n = 6)", "description": "The dysregulation of BCL2 expression in primary CLL by EC-7072 was evaluated by: • (i) incubating isolated CLL cells (n = 6) from patients with CLL following treatment with EC-7072 (200 nM) for 6 hours and extracting total RNA. Relative expression of BLC2 was determined by qPCR to obtain the mean relative expression to the control (DMSO) condition (Figure 6F); • (ii) incubating isolated CLL cells (n = 6) following treatment with 200 nM EC-7072 for 12 and 18 hours. BCL2 levels were evaluated by intracellular flow cytometry (Figure 6G); • (iii) incubating isolated T cells (n = 3) from patients with CLL following treatment with EC-7072 (200 nM) for 6 hours and extracting total RNA. Relative expression of BLC2 was determined by qPCR to obtain the mean relative expression to the control (DMSO) condition (Figure 6H); • (iv) incubating PBMCs (Figure 6I) and isolated T cells (Figure 6J) from patients with CLL (n = 3) following treatment with 200 nM EC-7072 for 24 hours. T-cell death and apoptosis were assessed by DiOC6(3)/PI staining to obtain percentages of viable [DiOC6(3)^+] cells and the mean percentages of apoptotic [DiOC6(3)^low PI^-] and dead [PI^+] cells."}, "CD79A, CD79B and IgM": {"test_system": "CD79A, CD79B and IgM", "experiment": "Surface expression of BCR complex components on leukemia cells by flow cytometry", "format": "cell-based, human", "conditions": "200 nM, 8 hours; n = 5 - 6", "description": "To determine immune cell populations, the following antibodies were employed: anti-CD19-APC, anti-CD3-APC, anti-CD4-PerCP and anti-CD8-APC (all from Immunostep); anti-CD3-FITC and anti-CD56-APC (Cytognos); and anti-CD3-PE/Cy7 and anti-CD5-APC/Cy7 (Biolegend). The subsets of immune cells were identified as follows: T cells were defined as CD3^+CD56^-, NK cells were identified as CD3^-CD56^+ and healthy B cells as CD19^+. Leukemia cells were defined as CD19^+, as the percentage of healthy B cells (CD19^+CD5^-) detected in PBMCs from patients with CLL was less than 2% (data not shown). Additionally, antibodies from Biolegend were used to detect surface expression of CD79A (clone: HM47), CD79B (clone: CB3-1) and IgM (clone: MHM-88). Cells were analyzed in a BD FACS Canto II flow cytometer with FACS Diva software (Beckton Dickinson).\nThe inhibition of the tonic BCR pathway by EC-7072 was evaluated by: • (i) incubating PBMCs from patients with CLL, following treatment with 200 nM EC-7072, for 8 hours. Surface expression of CD79A (Figure 7A), CD79B (Figure 7B) and IgM (Figure 7C) in leukemia cells (n = 5 - 6) was assessed by flow cytometry and the MFI was normalized to the control (DMSO) condition; • (ii) incubating isolated leukemia cells from patients with CLL (n = 10), following treatment with EC-7072 (200 nM), for 8 hours. […]"}, "OP9 cells": {"test_system": "OP9 cells", "experiment": "Viability of OP9 stromal cells exposed to EC-7072", "format": "cell-based", "conditions": "exposure to EC-7072 for 24 hours"}, "BCR signaling pathway": {"test_system": "BCR signaling pathway", "experiment": "Phosphoflow of BCR signaling nodes in isolated leukemia cells", "format": "cell-based, human", "description": "Protein phosphorylation levels were evaluated by phosphoflow. Briefly, isolated leukemia cells from patients with CLL were treated with 200 nM EC-7072 or DMSO for 8 or 12 hours. In some experiments, BCR signaling was activated with goat F(ab')2 anti-IgM antibody (10 µg/mL; SouthernBiotech) for 45 minutes. Right afterwards, cells were fixed with 1.8% paraformaldehyde for 10 minutes at RT and permeabilized with 90% ice-cold methanol for 25 minutes at 4 °C. Finally, cells were incubated with specific phospho-antibodies (p-SYK, p-BTK, p-ERK1/2 and p-H2AX from Biolegend, and p-PLCγ2, p-AKT, p-p65 NF-κB and p-STAT3 from BD Bioscience) for 30 minutes at RT and mean fluorescence intensity (MFI) was analyzed by flow cytometry.\nThe inhibition of the tonic BCR pathway by EC-7072 was evaluated by: • (i) incubating PBMCs from patients with CLL, following treatment with 200 nM EC-7072, for 8 hours. Surface expression of CD79A (Figure 7A), CD79B (Figure 7B) and IgM (Figure 7C) in leukemia cells (n = 5 - 6) was assessed by flow cytometry and the MFI was normalized to the control (DMSO) condition; • (ii) incubating isolated leukemia cells from patients with CLL (n = 10), following treatment with EC-7072 (200 nM), for 8 hours. Phosphorylation levels of p-SYK (Figure 7D), p-BTK (Figure 7E) and p-PLCy2 (Figure 7F) proteins and p-ERK1/2 (Figure 7G), p-AKT (Figure 7H), p-p65 NPκB (Figure 7I) and p-STAT3 (Figure 7J) were evaluated by phosphoflow and the MFI was normalized to the control (DMSO) from each individual patient; • (iii) incubating PBMCs from patients with CLL (n = 8), following treatment with EC-7072 (200 nM), for 8 hours. Viability was determined by DiOC6(3)/PI staining and normalized to the control (DMSO) condition for each individual patient to obtain the mean percentage of viable [DiOC6(3)^+] cells (Figure 7K); • (iv) incubating isolated CLL cells (n = 4) stimulated with CD40L (100 ng/mL) or IL-6 (40 ng/mL) for 15 minutes and detecting respective phosphorylation levels of p65 NF-κB (Figure 7L) and STAT3 (Figure 7M) by phosphoflow to obtain the mean MFI normalized to the control (DMSO) condition for each individual patient; • (v) incubating isolated leukemia cells from 3 patients with CLL, following treatment with 200 nM EC-7072, for 3, 8 and 12 hours. […]\nThe partial abrogation of EC-7072-induced cell death of primary CLL cells by activation of the BCR was evaluated by: • (i) incubating PBMCs from patients with CLL (n = 15), following treatment with EC-7072 (200 nM) in combination with α-IgM (10 µg/mL), for 24 hours. […]"}}}
{"smiles": "CO[C@@H]([C@@H]1Cc2cc3cc(O[C@H]4C[C@@H](O[C@H]5C[C@@H](O)[C@H](O)[C@@H](C)O5)[C@H](O)[C@@H](C)O4)c(C)c(O)c3c(O)c2C(=O)[C@H]1O[C@H]1C[C@@H](O[C@H]2C[C@@H](O[C@H]3C[C@](C)(O)[C@H](O)[C@@H](C)O3)[C@@H](O)[C@@H](C)O2)[C@H](O)[C@@H](C)O1)[C@@H](O)C(C)=O", "note": "[EC-7072, mithramycin SK]", "values": [{"measurement": "protein levels of BCL2", "setting": "BCL2", "value": "mild, but significant, decrease"}, {"measurement": "CD79A CLL cell surface expression", "setting": "CD79A, CD79B and IgM", "value": "unchanged"}, {"measurement": "CD79B and IgM CLL cell surface expression", "setting": "CD79A, CD79B and IgM", "value": "significantly decreased"}, {"measurement": "viability of OP9 cells", "setting": "OP9 cells", "value": "did not affect their viability"}, {"measurement": "amounts of p-AKT", "setting": "BCR signaling pathway; 200 nM, 8 hours, n = 10", "value": "No marked changes"}, {"measurement": "levels of phosphorylated (p)-SYK, p-BTK and p-PLCγ2", "setting": "BCR signaling pathway; 200 nM, 8 hours, n = 10", "value": "significant reduction"}, {"measurement": "phosphorylation levels of ERK1/2, p65 NF-κB and STAT3", "setting": "BCR signaling pathway; 200 nM, 8 hours, n = 10", "value": "significant downregulation"}, {"measurement": "phosphorylation of ERK1/2, AKT, p65 NF-κB and STAT3 ensued by anti-IgM", "setting": "BCR signaling pathway; EC-7072 200 nM 8 hours, then α-IgM (10 µg/mL) 15 minutes", "value": "not significantly reverted"}]}
